This note sets out measurements from US11524951B2, “2-(2,4,5-substituted-anilino)pyrimidine compounds” (AstraZeneca AB, priority 2011, dated 2022).

What all share (type): cell-based
Assay [1] concerns the target T1, Exon19 deletion EGFR (Homo sapiens, UniProt P00533, DEL746-750).
T1 construct: Assays to measure cellular phosphorylation of endogenous p-EGFR in cell lysates; endogenous in cells; host or cells: PC9 (human lung cell line)
The experiment in a line: Exon19 deletion EGFR (activating single mutant) cellular phosphorylation assay. The conditions noted are these: PC9 human lung cells (Exon 19 deletion EGFR); endogenous p-EGFR in cell lysates by ELISA; 2 h with compound; read-out: Assay 1 (IC50). On the procedure: Assay 1: Exon19 Deletion EGFR (Activating Single Mutant) Cellular Phosphorylation Assay
The human lung cell line PC9 (Exon 19 deletion EGFR) were obtained from the American type Culture Collection. […] Cells were grown in a humidified incubator at 37° C. with 5% CO2. Assays to measure cellular phosphorylation of endogenous p-EGFR in cell lysates were carried out according to the protocol described in the R&D Systems DuoSet IC Human Phospho-EGF R ELISA (R&D Systems catalogue number #DYC1095). 40 μL of cells were seeded (10000 cells/well) in growth medium in Corning black, clear-bottomed 384-well plates and incubated at 37° C. with 5% CO2 overnight. […] Plates were incubated for a further 2 h, then following aspiration of medium, 40 μL 1× lysis buffer was added to each well. Greiner black high bind 384-well plates were coated with capture antibody and then blocked with 3% BSA. Following removal of block, […], of lysate were transferred to the Greiner black high bind 384-well plates and incubated for 2 hours. Following aspiration and washing of the plates with PBS, 20 μL of detection antibody were added and incubated for 2 hours. […] The data obtained with each compound was exported into a suitable software package (such as Origin) to perform curve fitting analysis.

For assay [2], the target named is T2, L858R/T790M EGFR (Homo sapiens, UniProt P00533, L858R/T790M).
T2 construct: Assays to measure cellular phosphorylation of endogenous p-EGFR in cell lysates; endogenous in cells; host or cells: NCI-H1975 (human lung cell line)
The experiment in a line: L858R/T790M EGFR (double mutant) cellular phosphorylation assay. The settings on record: NCI-H1975 human lung cells; endogenous p-EGFR in cell lysates by ELISA; 2 h with compound. On the procedure: Assay 2: L858R/T790M EGFR (Double Mutant) Cellular Phosphorylation Assay
The human lung cell lines NCI-H1975 were obtained from the American type Culture Collection. […] Cells were grown in a humidified incubator at 37° C. with 5% CO2.
Assays to measure cellular phosphorylation of endogenous p-EGFR in cell lysates were carried out according to the protocol described in the R&D Systems DuoSet IC Human Phospho-EGF R ELISA (R&D Systems catalogue number #DYC1095).
40 μL of cells were seeded (10000 cells/well) in growth medium in Corning black, clear-bottomed 384-well plates and incubated at 37° C. with 5% CO2 overnight. […] Plates were incubated for a further 2 h and following aspiration of medium, 40 μL 1× lysis buffer was added to each well. Greiner black high bind 384-well plates were coated with capture antibody and then blocked with 3% BSA. Following removal of block, 15 μL of lysate were transferred to the Greiner black high bind 384-well plates and incubated for 2 hours. Following aspiration and washing of the plates with PBS, 20 μL of detection antibody were added and incubated for 2 hours. […] 20 μL QuantaBlu stop solution were added to plates and fluorescence read on an Envision plate reader using
The data obtained with each compound was exported into a suitable software package (such as Origin) to perform curve fitting analysis.

Assay [3] has as its target T3, Wild-type EGFR (Homo sapiens, UniProt P00533).
T3 construct: Assays to measure cellular phosphorylation of endogenous p-EGFR in cell lysates; endogenous in cells; host or cells: LoVo (human colon cell line)
The assay can be described thus: Wild-type EGFR cellular phosphorylation assay. The settings on record: LoVo human colon cells; endogenous p-EGFR in cell lysates by ELISA; 2 h with compound, then stimulated 100 ng/ml for 10 minutes; read-out: Assay 3 (IC50). On the procedure: Assay 3: Wild-Type EGFR Cellular Phosphorylation Assay
The human colon cell line LoVo were obtained from the American type Culture Collection. […] Cells were grown in a humidified incubator at 37° C. with 5% CO2. Assays to measure cellular phosphorylation of endogenous p-EGFR in cell lysates were carried out according to the protocol described in the R&D Systems DuoSet IC Human Phospho-EGF R ELISA (R&D Systems catalogue number #DYC1095). 40 μL of cells were seeded (15000 cells/well) in growth medium in Corning black, clear-bottomed 384-well plates and incubated at 37° C. with 5% CO2 overnight. […] Plates were incubated for a further 2 h then stimulated with 100 ng/ml for 10 minutes and following aspiration of medium, 40 μL 1× lysis buffer was added to each well. Greiner black high bind 384-well plates were coated with capture antibody and then blocked with 3% BSA. […] Following aspiration and washing of the plates with PBS, 20 μL of detection antibody were added and incubated for 2 hours. […] The data obtained with each compound was exported into a suitable software package (such as Origin) to perform curve fitting analysis.

T3 sequence (P00533 25-1210): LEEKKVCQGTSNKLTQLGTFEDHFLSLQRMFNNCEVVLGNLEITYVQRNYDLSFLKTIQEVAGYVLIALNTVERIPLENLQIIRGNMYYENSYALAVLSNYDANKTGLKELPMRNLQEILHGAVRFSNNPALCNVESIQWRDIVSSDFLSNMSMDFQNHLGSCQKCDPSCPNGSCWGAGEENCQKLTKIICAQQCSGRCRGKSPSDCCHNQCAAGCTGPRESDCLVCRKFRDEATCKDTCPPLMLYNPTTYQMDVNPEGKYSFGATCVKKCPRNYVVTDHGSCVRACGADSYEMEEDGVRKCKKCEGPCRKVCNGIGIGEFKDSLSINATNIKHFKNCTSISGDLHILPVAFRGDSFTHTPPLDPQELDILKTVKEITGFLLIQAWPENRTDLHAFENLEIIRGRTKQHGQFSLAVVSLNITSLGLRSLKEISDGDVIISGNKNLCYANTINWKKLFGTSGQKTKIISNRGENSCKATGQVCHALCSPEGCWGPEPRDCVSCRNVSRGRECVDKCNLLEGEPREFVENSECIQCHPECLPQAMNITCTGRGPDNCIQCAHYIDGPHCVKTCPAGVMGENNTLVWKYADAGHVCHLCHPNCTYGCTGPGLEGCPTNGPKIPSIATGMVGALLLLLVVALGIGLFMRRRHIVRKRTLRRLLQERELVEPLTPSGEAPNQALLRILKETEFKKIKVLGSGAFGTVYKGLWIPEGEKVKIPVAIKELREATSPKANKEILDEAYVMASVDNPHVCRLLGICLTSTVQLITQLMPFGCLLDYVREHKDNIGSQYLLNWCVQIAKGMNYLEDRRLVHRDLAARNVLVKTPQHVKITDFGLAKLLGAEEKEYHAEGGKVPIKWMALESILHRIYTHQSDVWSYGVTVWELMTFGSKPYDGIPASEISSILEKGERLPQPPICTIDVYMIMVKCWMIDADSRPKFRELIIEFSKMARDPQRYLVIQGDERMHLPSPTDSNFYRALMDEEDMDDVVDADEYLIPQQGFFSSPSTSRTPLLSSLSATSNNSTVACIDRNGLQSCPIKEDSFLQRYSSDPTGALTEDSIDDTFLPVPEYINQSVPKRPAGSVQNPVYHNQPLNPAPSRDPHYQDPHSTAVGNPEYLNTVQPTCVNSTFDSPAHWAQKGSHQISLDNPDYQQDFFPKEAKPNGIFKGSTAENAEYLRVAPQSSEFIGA
T2 sequence (P00533 25-1210 T790M/L858R): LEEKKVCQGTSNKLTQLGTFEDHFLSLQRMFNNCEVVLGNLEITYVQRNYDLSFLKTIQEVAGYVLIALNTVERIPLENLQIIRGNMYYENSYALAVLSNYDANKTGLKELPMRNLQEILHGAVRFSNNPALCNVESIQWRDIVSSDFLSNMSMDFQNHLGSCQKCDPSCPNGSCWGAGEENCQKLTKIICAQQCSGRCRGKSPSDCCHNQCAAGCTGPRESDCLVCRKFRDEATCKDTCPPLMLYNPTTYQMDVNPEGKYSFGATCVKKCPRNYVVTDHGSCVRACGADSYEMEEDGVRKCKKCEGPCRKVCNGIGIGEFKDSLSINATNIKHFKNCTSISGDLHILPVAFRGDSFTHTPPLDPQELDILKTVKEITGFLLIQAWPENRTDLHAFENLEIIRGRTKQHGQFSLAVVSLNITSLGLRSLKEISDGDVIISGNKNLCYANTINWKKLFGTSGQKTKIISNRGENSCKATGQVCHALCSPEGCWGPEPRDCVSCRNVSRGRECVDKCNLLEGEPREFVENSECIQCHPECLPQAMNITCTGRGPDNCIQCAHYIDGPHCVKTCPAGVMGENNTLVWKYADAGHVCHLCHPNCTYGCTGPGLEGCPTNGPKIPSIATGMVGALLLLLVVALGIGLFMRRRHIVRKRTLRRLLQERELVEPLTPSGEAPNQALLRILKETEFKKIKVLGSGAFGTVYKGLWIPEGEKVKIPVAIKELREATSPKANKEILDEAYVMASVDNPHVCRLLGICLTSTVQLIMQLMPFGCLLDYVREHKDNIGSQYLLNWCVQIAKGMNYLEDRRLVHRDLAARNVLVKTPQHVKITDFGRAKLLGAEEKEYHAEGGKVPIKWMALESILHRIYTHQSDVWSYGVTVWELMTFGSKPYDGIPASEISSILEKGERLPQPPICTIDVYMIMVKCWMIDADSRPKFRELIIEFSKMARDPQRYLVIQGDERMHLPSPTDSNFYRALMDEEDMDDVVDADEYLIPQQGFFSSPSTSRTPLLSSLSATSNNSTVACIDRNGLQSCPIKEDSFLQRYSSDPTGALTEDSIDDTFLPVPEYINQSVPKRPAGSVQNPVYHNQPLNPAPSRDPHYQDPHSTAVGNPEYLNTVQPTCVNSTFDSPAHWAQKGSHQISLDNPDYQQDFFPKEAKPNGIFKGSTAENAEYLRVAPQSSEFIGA
T1 sequence (P00533 with tags, fused parts or gaps DEL746-750): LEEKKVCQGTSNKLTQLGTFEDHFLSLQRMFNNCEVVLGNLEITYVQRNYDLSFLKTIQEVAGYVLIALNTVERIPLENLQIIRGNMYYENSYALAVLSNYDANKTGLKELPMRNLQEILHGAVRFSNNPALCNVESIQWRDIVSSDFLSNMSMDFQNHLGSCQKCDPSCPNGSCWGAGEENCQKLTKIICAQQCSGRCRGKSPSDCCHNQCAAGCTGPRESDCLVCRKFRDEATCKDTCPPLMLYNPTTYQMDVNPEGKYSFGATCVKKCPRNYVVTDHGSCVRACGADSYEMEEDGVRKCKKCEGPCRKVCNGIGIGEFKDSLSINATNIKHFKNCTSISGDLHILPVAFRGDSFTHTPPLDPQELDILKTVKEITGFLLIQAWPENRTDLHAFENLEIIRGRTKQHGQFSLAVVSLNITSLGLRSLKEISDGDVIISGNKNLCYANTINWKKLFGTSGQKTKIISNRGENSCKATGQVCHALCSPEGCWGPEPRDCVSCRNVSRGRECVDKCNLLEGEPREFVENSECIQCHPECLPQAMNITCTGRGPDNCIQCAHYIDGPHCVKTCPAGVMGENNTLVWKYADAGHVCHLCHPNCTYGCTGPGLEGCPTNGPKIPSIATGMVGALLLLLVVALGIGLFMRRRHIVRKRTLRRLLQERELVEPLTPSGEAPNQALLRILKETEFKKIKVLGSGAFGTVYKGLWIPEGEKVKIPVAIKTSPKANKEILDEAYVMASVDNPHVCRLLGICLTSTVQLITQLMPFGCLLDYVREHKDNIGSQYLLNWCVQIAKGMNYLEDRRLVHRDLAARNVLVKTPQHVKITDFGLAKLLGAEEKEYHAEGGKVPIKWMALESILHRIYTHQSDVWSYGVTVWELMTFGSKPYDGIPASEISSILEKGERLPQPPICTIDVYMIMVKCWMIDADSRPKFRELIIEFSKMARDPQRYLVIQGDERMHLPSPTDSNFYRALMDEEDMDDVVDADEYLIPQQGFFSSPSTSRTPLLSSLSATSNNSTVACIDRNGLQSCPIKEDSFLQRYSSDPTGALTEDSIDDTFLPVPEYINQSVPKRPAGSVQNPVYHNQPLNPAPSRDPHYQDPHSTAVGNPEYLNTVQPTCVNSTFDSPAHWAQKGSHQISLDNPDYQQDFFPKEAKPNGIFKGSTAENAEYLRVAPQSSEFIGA

For the molecule `C=CC(=O)Nc1cc(Nc2ncc(C#N)c(-c3cnn4ccccc34)n2)c(OC)cc1N1CC[C@@H](N(C)C)C1` [Example 38, N-{5-[(5-Cyano-4-pyrazolo[1,5-a]pyridin-3-ylpyrimidin-2-yl)amino]-2-[(3R)-3-dimethylaminopyrrolidin-1-yl]-4-methoxyphenyl}prop-2-enamide], the IC50 amounted to 5.09 nM in assay [1], 4.41 nM in assay [2] and 538 nM in assay [3].
In the same order, the values of `C=CC(=O)Nc1cc(Nc2ncc(C#N)c(-c3cnn4ccccc34)n2)c(OC)cc1N(C)CCN(C)C` [Example 39, N-{5-[(5-Cyano-4-pyrazolo[1,5-a]pyridin-3-ylpyrimidin-2-yl)amino]-2-[2-dimethylaminoethyl-methylamino]-4-methoxyphenyl}prop-2-enamide] are 2.34 nM, 1.01 nM and 248 nM.
`C=CC(=O)Nc1cc(Nc2ncc(C#N)c(-c3cnn4ccccc34)n2)c(OC)cc1N1CC(N(C)C)C1` [Example 40, N-{5-[(5-Cyano-4-pyrazolo[1,5-a]pyridin-3-ylpyrimidin-2-yl)amino]-2-[3-dimethylaminoazetidin-1-yl]-4-methoxyphenyl}prop-2-enamide]: the IC50 in assay [1] was 12.4 nM; in assay [2], 14.8 nM; in assay [3], above 30000 nM.
Turning to `C=CC(=O)Nc1cc(Nc2nccc(-c3cn(C)c4ccccc34)n2)c(OC)cc1N1CC[C@@H]2CN(C)C[C@@H]21` [Example 41, N-(2-{(3aR,6aR)-5-Methyl-2,3,3a,4,6,6a-hexahydropyrrolo[3,4-b]pyrrol-1-yl}-4-methoxy-5-{[4-(1-methylindol-3-yl)pyrimidin-2-yl]amino}phenyl)prop-2-enamide], the IC50 in assay [1] was 28.6 nM; in assay [2], 29.5 nM; in assay [3] it was 1840 nM.
Take `C=CC(=O)Nc1cc(Nc2nccc(-c3cnn4c3CCCC4)n2)c(OC)cc1N(C)CCN(C)C` [Example 42, N-(2-{2-Dimethylaminoethyl-methylamino}-4-methoxy-5-{[4-(4,5,6,7-tetrahydropyrazolo[1,5-a]pyridin-3-yl)pyrimidin-2-yl]amino}phenyl)prop-2-enamide]: the values for the IC50 in assay [1], in assay [2] and in assay [3] were 5.19 nM, 5.16 nM and 454 nM, respectively.
`C=CC(=O)Nc1cc(Nc2nccc(-c3cnn4c3CCCC4)n2)c(OC)cc1N1CC[C@@H]2CN(C)C[C@@H]21` [Example 43, N-(2-{(3aR,6aR)-5-Methyl-2,3,3a,4,6,6a-hexahydropyrrolo[3,4-b]pyrrol-1-yl}-4-methoxy-5-{[4-(4,5,6,7-tetrahydropyrazolo[1,5-a]pyridin-3-yl)pyrimidin-2-yl]amino}phenyl)prop-2-enamide]: the IC50 came out at 18.2 nM in assay [1], 10.6 nM in assay [2] and 1340 nM in assay [3].
In the same order, the values of `C=CC(=O)Nc1cc(Nc2nccc(-c3cnn4c3CCCC4)n2)c(OC)cc1N1CC[C@@H](N(C)C)C1` [Example 44, N-(2-{(3R)-3-Dimethylaminopyrrolidin-1-yl}-4-methoxy-5-{[4-(4,5,6,7-tetrahydropyrazolo[1,5-a]pyridin-3-yl)pyrimidin-2-yl]amino}phenyl)prop-2-enamide] are 33.3 nM, 25.6 nM and 3640 nM.
Consider `C=CC(=O)Nc1cc(Nc2nccc(-c3cnn4c3CCCC4)n2)c(OC)cc1C1=CCN(C)CC1` [Example 45, N-(4-Methoxy-2-{1-methyl-3,6-dihydro-2H-pyridin-4-yl}-5-{[4-(4,5,6,7-tetrahydropyrazolo[1,5-a]pyridin-3-yl)pyrimidin-2-yl]amino}phenyl)prop-2-enamide], for which the half-maximal inhibitory concentration (IC50) in assay [1] worked out at 110 nM; in assay [2], 41 nM; in assay [3] it was 7400 nM.
On to `C=CC(=O)Nc1cc(Nc2nccc(-c3cnn4c3CCCC4)n2)c(OC)cc1N1CC(N(C)C)C1` [Example 46, N-(2-{3-Dimethylaminoazetidin-1-yl}-4-methoxy-5-{[4-(4,5,6,7-tetrahydropyrazolo[1,5-a]pyridin-3-yl)pyrimidin-2-yl]amino}phenyl)prop-2-enamide], for which the values for the 50% inhibitory concentration (IC50) in assay [1], in assay [2] and in assay [3] were 129 nM, 92.9 nM and 7090 nM, respectively.
For the molecule `C=CC(=O)Nc1cc(Nc2nccc(-c3cnn4c3CCCC4)n2)c(OC)cc1N1CC2(CCCN2C)C1` [Example 47, N-(4-Methoxy-2-{8-methyl-2,8-diazaspiro[3.4]octan-2-yl}-5-{[4-(4,5,6,7-tetrahydropyrazolo[1,5-a]pyridin-3-yl)pyrimidin-2-yl]amino}phenyl)prop-2-enamide], the IC50 was determined as 194 nM in assay [1], 119 nM in assay [2] and 15400 nM in assay [3].
In the same order, the values of `C=CC(=O)Nc1cc(Nc2nccc(-c3cn(C)c4ccccc34)n2)c(OC)cc1C1=CCN(C)CC1` [Example 48, N-(4-Methoxy-2-{1-methyl-3,6-dihydro-2H-pyridin-4-yl}-5-{[4-(1-methylindol-3-yl)pyrimidin-2-yl]amino}phenyl)prop-2-enamide] are 39.9 nM, 31 nM and 1580 nM.
In the same order, the values of `C=CC(=O)Nc1cc(Nc2nccc(-c3cn(C)c4ccccc34)n2)c(OC)cc1N1CC2(CCCN2C)C1` [Example 49, N-(4-Methoxy-2-{8-methyl-2,8-diazaspiro[3.4]octan-2-yl}-5-{[4-(1-methylindol-3-yl)pyrimidin-2-yl]amino}phenyl)prop-2-enamide] are 74.2 nM, 51 nM and 3090 nM.
In the same order, the values of `C=CC(=O)Nc1cc(Nc2nccc(-c3cnn4ccccc34)n2)c(OC)cc1C1=CCN(C)CC1` [Example 51, N-{4-Methoxy-2-[1-methyl-3,6-dihydro-2H-pyridin-4-yl]-5-[(4-pyrazolo[1,5-a]pyridin-3-ylpyrimidin-2-yl)amino]phenyl}prop-2-enamide] are 13 nM, 7.71 nM and 462 nM.
As for `C=CC(=O)Nc1cc(Nc2nccc(-c3cnn4ccccc34)n2)c(OC)cc1N1CC[C@@H](N(C)C)C1` [Example 52, N-{2-[(3R)-3-Dimethylaminopyrrolidin-1-yl]-4-methoxy-5-[(4-pyrazolo[1,5-a]pyridin-3-ylpyrimidin-2-yl)amino]phenyl}prop-2-enamide], the values for the concentration for half-maximal inhibition (IC50) in assay [1], in assay [2] and in assay [3] were 26 nM, 15 nM and 1400 nM, respectively.
As for `C=CC(=O)Nc1cc(Nc2nccc(-c3cnn4ccccc34)n2)c(OC)cc1N1CC(N(C)C)C1` [Example 53, N-{2-(3-Dimethylaminoazetidin-1-yl)-4-methoxy-5-[(4-pyrazolo[1,5-a]pyridin-3-ylpyrimidin-2-yl)amino]phenyl}prop-2-enamide], the values for the IC50 in assay [1], in assay [2] and in assay [3] were 35.4 nM, 28.2 nM and 2640 nM, respectively.
In the same order, the values of `C=CC(=O)Nc1cc(Nc2nccc(-c3cnn4ccccc34)n2)c(OC)cc1N(C)CCN(C)C` [Example 54, N-{2-[2-Dimethylaminoethyl-methylamino]-4-methoxy-5-[(4-pyrazolo[1,5-a]pyridin-3-ylpyrimidin-2-yl)amino]phenyl}prop-2-enamide] are 3.22 nM, 2.8 nM and 183 nM.
